Laboratory results as given in PubChem BioAssay AID2305 (GlaxoSmithKline (GSK), 2010).

system: P. falciparum 3D7 growth, pLDH absorbance; assay: P. falciparum 3D7 growth inhibition, dose response, strain 3D7 (AID 2305)

SMILES | IC50 [nM]
CCCN1CCN(c2ccc(NS(=O)(=O)c3ccc(C(=O)Nc4ccc(Cl)cc4)cc3)cc2)CC1 | 1110
NC(N)=NN=CC(=O)Nc1ccc(Cl)cc1 | 810
O=C(NC1CCC(CN2CCC(c3c[nH]c4ccccc34)CC2)CC1)c1cc(-c2ccccc2)c(C(F)(F)F)s1 (stereo unspecified) | 170
CN1C[C@@H](c2ccccc2)c2cc(O)c(CN3CCCCC3)cc2C[C@H]1Cc1ccccc1 | 180
CN1CCC(N(Cc2ccc(-c3ccc(Cl)cc3)cc2)C(=O)Cn2c(CCc3cccc(F)c3F)cc(=O)c3ccccc32)CC1 | 860
Cc1cc(C)c(O)c(-c2cc(C(=O)Nc3ccc(S(=O)(=O)N4CC(C)OC(C)C4)cc3)[nH]n2)c1 (stereo unspecified) | 660
O=C(/C=C/c1ccc(Cl)c(Cl)c1)NCCCCCN1CCC(NC(=O)Nc2cc(Cl)nc(Cl)c2)CC1 | 980
Cc1ccc2nc(C)n(C3CCN(C(=O)Cc4ccc(F)c(F)c4)CC3)c2c1 | 470
CC(Cc1ccc(CNC(=O)NCc2ccc(CC(C)NCCc3cccc(Cl)c3)cc2)cc1)NCCc1cccc(Cl)c1 (stereo unspecified) | 690
C[C@@H](NC(C)(C)C)[C@H](O)c1ccc(Cl)c(C(F)(F)F)c1 | 740
NC(=O)c1cccc(C(=O)Nc2ccc(-c3cccc(-c4nc5ccc(C(F)(F)F)cc5[nH]4)c3)cc2)c1 | 350
COc1cc(CN2CCC(CO)(Cc3cccc(C(F)(F)F)c3)CC2)c(Cl)cc1O | 900
O=C(/C=C/c1ccc(Cl)c(Cl)c1)NCCCCCN1CCCN(C(=O)Nc2cccc(F)c2)CC1 | 760
Nc1c2c(nc3ccccc13)C(=Cc1ccc(O)cc1)CCC2 | 180
Nc1nc(N)c2c(Sc3ccccc3)cccc2n1 | 650
O=C(NC1CCN(Cc2ccccc2)CC1)c1cccc(Nc2nc(-c3ccccc3)cs2)c1 | 1030
O=C(Nc1ccc(Cl)c(Cl)c1)N1CCc2ccc(OCCCN3CCCCC3)cc2CC1 | 1520
Cc1cc(C(=O)NCc2ccc(-c3c(C)noc3C)cc2)n(-c2ccc(Cl)cc2)n1 | 530
Cc1cc(N[C@@H](CC(C)C)C(=O)NCCOc2ccccc2)nc(NCCOc2ccccc2)n1 | 1490
O=C(NC(NC(=S)Nc1ccc([N+](=O)[O-])cc1)C(Cl)(Cl)Cl)c1cccc(Cl)c1 (stereo unspecified) | 730
CC[C@H]1CN2CC[C@@H]1C[C@H]2[C@H](O)c1cc(N2CCC(O)(c3ccc(Cl)cc3)CC2)nc2ccc(OC)cc12 | 70
COc1ccc2nccc([C@@H](O)CN3CCC(NC(=O)c4ccc(-c5ccccc5)s4)CC3)c2c1 | 310
Oc1cccc(C2CCCN(CCc3c[nH]c4ccccc34)C2)c1 (stereo unspecified) | 860
O=C(Nc1cccc(CN2CCCN(Cc3ccc(O)cc3)CC2)c1)c1cccc(F)c1 | 900

SMILES | IC50 [nM]
CCCN(CCCN(CCCN(CCC)C(C)C)c1cc(C)nc(Nc2ccc(Cl)cc2)n1)C(C)C | 110
COC(=O)c1ccc(CC(C)NCC(O)c2cc(Cl)c(N)c(Cl)c2)cc1 (stereo unspecified) | 880
Clc1cc(Nc2ccnc3ccc(Br)cc23)ccc1Oc1ccc2ccccc2c1Cl | 730
COc1ccc(CN2CCCN(Cc3cccc(NC(=O)c4cc5ccccc5s4)c3)CC2)cc1 | 840
Cc1cc(C)cc(CC(=O)N2CCC(n3c(C)nc4ccc(C)cc43)CC2)c1 | 530
O=C(/C=C/c1ccc(Cl)cc1Cl)NC1CCC(CN2CCC(c3c[nH]c4ccccc34)CC2)CC1 (stereo unspecified) | 800
C[C@@H]([C@@H](CCCCc1ccccc1)C(=O)N[C@H](C(=O)Nc1cccnc1)C(C)(C)C)N(O)C=O | 930
COc1ccc(CC(Cc2ccc(OC)cc2)NCC(O)c2cccc(Cl)c2)cc1 (stereo unspecified) | 160
Cc1c(F)cc(C(=O)NC2CC2)cc1-c1ccc2c(cnn2S(=O)(=O)c2ccc(C#N)cc2)c1 | 100
CC(=O)c1cccc(NC(=O)C2c3ccccc3C(=O)N(CC(C)C)C2c2cccs2)c1 (stereo unspecified) | 590
CCn1c(-c2nonc2N)nc2c(-c3cccc(NC(=O)Nc4cccc(Cl)c4)c3)ncc(OCCCN)c21 | 940
COc1ccc(-c2csc3ncnc(Cl)c23)cc1OC | 770
COC1CCC(C(=O)Nc2ccc(-c3cccc(-c4nc5ccc(C(F)(F)F)cc5[nH]4)c3)cc2)CC1 (stereo unspecified) | 550
O=C(NCCCN1CCOCC1)c1ccc(-c2cccc(NC(=O)c3ccc(Cl)c(Cl)c3)c2)cc1 | 680
CC(C)(C)c1ccc(O)c(CNC2CCCCC2)c1 | 260
COc1ccc(Nc2ccnc3cc4ccccc4cc23)cc1 | 680
COc1ccc2nccc([C@@H](O)CN3CCC(NC(=O)/C=C/c4cc(F)cc(NC(C)=O)c4)CC3)c2c1 | 180
O=C(NCc1ccccc1)Nc1cccc(-c2cccc(-c3nc4ccc(C(F)(F)F)cc4[nH]3)c2)c1 | 260
Nc1ccc2[nH]cc(C3CCN(CC4CCC(NC(=O)/C=C/c5ccc(Cl)c(Cl)c5)CC4)CC3)c2n1 (stereo unspecified) | 730
COc1ccc2nccc([C@@H](O)CN3CCC(NCc4cc5c(Cl)cccc5[nH]4)CC3)c2c1 | 160
Cc1cc(C)n(Cc2ccc(C(=O)NCC3CCCCC3)cc2)n1 | 960
CC(=O)Oc1c(C2CCN(CCCCNC(=O)c3ccc(-c4ccc(C#N)cc4)cc3)CC2)ccc2c1CCCC2 | 1130
Cc1ccc2ncc(Cl)c(CCN3CCC(NCc4ccc5c(n4)NC(=O)CS5)CC3)c2n1 | 1100
C[C@@H](NC(=O)NC(CCN1CCC2(CC1)CN(S(C)(=O)=O)c1ccccc12)c1ccc(Cl)c(Cl)c1)c1ccccc1 (stereo partly specified) | 900

SMILES | IC50 [nM]
CN1CCCc2ccc(NC(=O)Nc3ccc(Cl)c(Cl)c3)cc2C1 | 600
c1ccc2[nH]c(-c3ccc(-c4ccc(CNC5CC5)cc4)s3)nc2c1 | 1050
CC(Cc1ccc(Oc2ccccc2)cc1)NCC(O)c1cccc(C(F)(F)F)c1 (stereo unspecified) | 670
c1ccc(CN2CCN(CCNc3c4ccccc4nc4ccccc34)CC2)cc1 | 880
COc1cc(F)c2ncc(Cl)c([C@H](O)CN3CCC(NCc4cc5c(cn4)OCCO5)CC3)c2c1 | 100
c1cncc(CN2CCN(Cc3ccc(-c4ccc(-c5nc6ccccc6[nH]5)s4)cc3)CC2)c1 | 940
O=C(C=Cc1ccc(Cl)c(Cl)c1)NCCCCCN1CCCC(CCCNC(=O)/C=C/c2ccccc2)C1 (stereo unspecified) | 590
CCN(CC)S(=O)(=O)c1ccc(C=CC(=O)Nc2cc(Cl)ccc2N2CCOCC2)cc1 | 920
CCCNCc1ccc(-c2ccc(CN(Cc3cccs3)C(=O)C3CCN(C)CC3)cc2)nc1 | 660
CC(Cc1ccc(SC(C)(C)C)cc1)NCC(O)c1cccc(Cl)c1 (stereo unspecified) | 320
COc1ccc(N2CCN(c3nc(N)c4cc(OC)c(OC)cc4n3)CC2C)cc1 (stereo unspecified) | 1420
CNc1ccc(CNCc2ccc(-c3ccc(-c4nc5c(C)cccc5[nH]4)s3)cc2)cc1 | 660
CO/C(=C\C=C\c1cc2cc(Cl)c(Cl)cc2[nH]1)C(=O)NC1CCN(CCCc2ccccc2)CC1 | 770
NCCCNc1nccc(N2CCc3ncnc(Nc4ccc(OCc5cccc(F)c5)c(Cl)c4)c3C2)n1 | 830
COc1ccc(NC(=O)[C@H](CC(C)C)Nc2cc(C)nc(NCC3CCCCC3)n2)cc1 | 1100
COc1cccc(C(=O)[C@H]2C[C@@H]2CN(C)CC(O)c2cc(C)c(OC)cc2C)c1 (stereo partly specified) | 1140
CC(=O)Nc1nc(C(=O)Nc2ccc(-c3ccc(-c4nc5ccccc5[nH]4)cc3)cc2)cs1 | 150
Cc1nc2nc(N)nc(N)c2c(C)c1Cc1c(Cl)cccc1Cl | 50
O=S(=O)(Nc1ccc2nccc(N3CCNCC3)c2c1)c1ccc2oc3ccccc3c2c1 | 690
CCN1CCN(c2cc(C)c3cc(NC(=O)c4ccc(OC)c(OC)c4)ccc3n2)CC1 | 1030
CCOC(=O)C(C(C)=O)C(c1ccccc1)C(C(C)=O)C(=O)OCC (stereo unspecified) | 750
CCOC(=O)N[C@@H]1CN[C@@H](C#Cc2cc3c(Nc4ccc(OCc5cccc(F)c5)c(Cl)c4)ncnc3s2)C1 | 1080
CCCCCN1CCCC1CNS(=O)(=O)c1cccc(C(=O)Nc2cccc(C(F)(F)F)c2)c1 (stereo unspecified) | 770
COc1ccc(C2CC(c3cccs3)=NN2C(=O)COc2cccc3c2CCCC3O)cc1OC (stereo unspecified) | 1150

SMILES | IC50 [nM]
Cc1c(C2CCN(CCCCNC(=O)c3ccc(-c4ccc(C#N)cc4)cc3)CC2)c2ccccc2n1CCO | 1000
Cc1ccc(Cc2cnc(NCCSCc3ccc(CN4CCOCC4)o3)[nH]c2=O)cn1 | 1070
O=C(Nc1cccc(-c2ccc(-c3nc4ccc(C(F)(F)F)cc4[nH]3)s2)c1)c1cnc[nH]1 | 1110
COc1ccc(-c2cc3ncn(CC(=O)N4CCN(c5cccc(OC)c5)CC4)c(=O)c3s2)cc1 | 1060
FC(F)(F)c1cccc2c(NN=Cc3ccccc3)ccnc12 | 620
CN1CCCC(CN2CCN(Cc3cccc(-c4ccc(-c5nc6ccccc6[nH]5)cc4)c3)CC2)C1 (stereo unspecified) | 160
CC(C)c1ccc(CN2CCCCC(NC(=O)c3cc(-c4ccccc4F)cs3)C2)cc1 (stereo unspecified) | 670
O=C(CCCCCNC(=O)c1ccc(O)c(-c2ccc(Cl)c(Cl)c2)c1)NCCc1ccc(Cl)c(Cl)c1 | 760
COc1ccccc1CNc1nc(Nc2ccccc2C)nc2ccccc12 | 810
c1ncc(CCNc2nc(Nc3ccc4c(c3)OCO4)nc(NC3CCCC3)n2)[nH]1 | 1150
O=C(NCCCCN1CCC(c2cccc3ccccc23)CC1)c1ccc(-c2ccc(C(F)(F)F)cn2)cc1 | 870
Cc1cccc(C(=O)N2CCN(Cc3cccc(NC(=O)c4cccs4)c3)CC2)c1 | 220
CN1CCN(CC(=O)Nc2cccc(-c3ccc(-c4nc5ccc(F)cc5[nH]4)s3)c2)CC1 | 680
Nc1cccc(CNCc2ccc(-c3cccc(-c4nc5ccccc5[nH]4)c3)cc2)c1 | 710
Cc1[nH]c(C)c(-c2ccc(-c3ccc(Cl)cc3)cc2)c(=O)c1Cl | 210
CC(=O)Nc1ccc(CN2CCC(NC(=O)c3ccc(-c4cccc(Cl)c4)s3)CC2)cc1 | 790
O=C(/C=C/c1ccc(Cl)c(Cl)c1)NCCCCCN1CCC(n2c(=O)[nH]c3ccccc32)CC1 | 870
CC(CN(C)C)C(=O)Nc1cccc(-c2cccc(-c3nc4ccccc4[nH]3)c2)c1 (stereo unspecified) | 1060
Nc1nc(N)c2c(ccc3c2cnn3S(=O)(=O)N2CCCC2)n1 | 20
CN(C)CCN(C)Cc1cccc(-c2ccc3c(Nc4cc(O)c(Cl)cc4F)ccnc3c2)c1 | 240
Cc1noc(C)c1-c1ccc(C(=C2CCCCCC2)c2ccc(O)cc2)cc1 | 190
COc1ccc2c(c1)CC(NCc1ccc(-c3ccc4nc[nH]c4c3)cc1)C2 (stereo unspecified) | 880
O=[N+]([O-])c1cc(C=NNc2nc3nonc3nc2Nc2ccc(F)cc2)c(Cl)cc1Cl | 760
CC1CN(c2ccc(NC(=O)c3cccs3)cc2)CCN1Cc1cccc(F)c1 (stereo unspecified) | 490
